Measured values published in patent US8084612B2, “Proline analogs as ligands for cannabinoid receptors” (Purdue Pharma L.P., priority 2008, dated 2011).

Columns and labels:
CB1 receptor [1] = target: T1, CB1 receptor (Homo sapiens, UniProt P21554); assay: GTPγ[35S] functional binding assay, CB1 membranes; format: biochemical; parameters: Brussels, Belgium; host or cells: CHO-K1; Emax: reference not given here; conditions: GTPγ[35S] binding; for EC50: n.a. = no activity detected at the highest concentration tested, read-out: CB1 EC 50
T1 sequence (P21554 whole entry): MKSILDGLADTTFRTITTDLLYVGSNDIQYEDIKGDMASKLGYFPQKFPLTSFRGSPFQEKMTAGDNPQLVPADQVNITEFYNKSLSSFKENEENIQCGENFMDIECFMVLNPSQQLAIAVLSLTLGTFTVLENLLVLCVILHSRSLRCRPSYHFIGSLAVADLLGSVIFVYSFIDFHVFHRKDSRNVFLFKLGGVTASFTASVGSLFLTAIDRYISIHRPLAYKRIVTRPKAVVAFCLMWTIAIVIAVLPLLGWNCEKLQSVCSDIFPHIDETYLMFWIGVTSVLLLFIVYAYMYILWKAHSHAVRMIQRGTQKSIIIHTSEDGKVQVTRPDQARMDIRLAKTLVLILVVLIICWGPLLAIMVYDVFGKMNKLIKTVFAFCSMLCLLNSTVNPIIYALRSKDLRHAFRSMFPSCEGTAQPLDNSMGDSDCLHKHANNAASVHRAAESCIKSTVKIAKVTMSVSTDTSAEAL

CB1 receptor [2] = target: T1, CB1 receptor; assay: Competition binding assay, [3H]-CP55,940 displacement, CB1 CHO-K1 membranes
Experimental: (§1) CHO-K1 cells expressing CB1 or CB2 receptors (which were purchased from EuroScreen; Brussels, Belgium) were grown to confluency (20-40×10^6 cells) in 10 cm dishes. Cells were lysed by adding 10 mL/dish ice-cold hypotonic buffer (2.5 mM MgCl2, 50 mM HEPES, pH 7.4). Cell lysates were removed using a cell scraper and homogenized 30 seconds with a BioSpec Tissue Tearer™ (Racine, Wis.). Membranes were collected by centrifugation at 30,000 g for 15 min at 4° C. and pellets resuspended in hypotonic buffer to a final concentration of 1-3 mg/mL.
(§2) Membranes (CB1 or CB2 CHO-K1: 1 μg/well) were incubated at room temperature for 1 hour with 0.5 nM [^3H]-CP55,940 in 500 μL of assay buffer (5 mM MgCl2, 5 mg/mL BSA, 2.5 mM EDTA and 50 mM Tris-HCl, pH 7.4) in the presence of increasing concentrations of unlabeled competitors, e.g. WIN55, 212-2 (a CB1 receptor agonist available from Sigma-Aldrich, St. Louis, Mo.) or ligand of interest. The final concentration of DMSO was 5% . Reactions were terminated by rapid filtration using a 96-well filtration apparatus (Brandel, Gaithersburg, Md.) onto GE/C filter plates (PerkinElmer Life Sciences; Boston, Mass.) pretreated with polyethylenimine 0.5% (w/v). The plates were washed three times with 500 μL of ice-cold assay buffer. Filter plates were subsequently dried at 50° C. for 2-3 hours. Fifty microliters per well BetaScint 20 (PerkinElmer) scintillation cocktail was added and plates counted in a TopCount (PerkinElmer) for 1 min/well.
(§3) Data were analyzed using GraphPad PRISM™, v. […] The concentrations of unlabeled competitors that yield 50% displacement (IC50 values) were calculated from each curve by a non-linear regression analysis fined to a one-site model. In separate experiments, equilibrium dissociation constants (Kd values) were determined for each receptor. […] All Ki values are presented as mean±SEM of n determinations.

CB2 receptor = CB2 receptor (Homo sapiens, UniProt P34972); assay: Competition binding assay, [3H]-CP55,940 displacement, CB2 CHO-K1 membranes
CB2 receptor, sequence (P34972 whole entry): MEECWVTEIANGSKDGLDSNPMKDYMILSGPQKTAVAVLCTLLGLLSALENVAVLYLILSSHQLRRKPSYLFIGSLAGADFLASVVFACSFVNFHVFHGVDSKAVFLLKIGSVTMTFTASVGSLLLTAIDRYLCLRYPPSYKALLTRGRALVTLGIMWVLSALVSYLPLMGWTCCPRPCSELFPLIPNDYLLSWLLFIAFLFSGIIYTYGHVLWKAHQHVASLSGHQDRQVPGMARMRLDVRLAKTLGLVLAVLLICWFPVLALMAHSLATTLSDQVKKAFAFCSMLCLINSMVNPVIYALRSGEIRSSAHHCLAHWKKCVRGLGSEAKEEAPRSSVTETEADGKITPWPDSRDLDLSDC
Experimental: as §1, §2, §3

Row | SMILES | Emax (CB1 receptor [1]) | EC50 (CB1 receptor [1]) | Ki (CB1 receptor [2]) | Ki (CB2 receptor)
1 | O=C(Nc1sc2c(c1C(=O)N1CCCCC1)CCCCC2)[C@H]1CCCN1S(=O)(=O)c1ccccc1 [AAA(a)] | 80% | 702 nM | 4.7 nM | 4.3 nM
2 | O=C(Nc1sc2c(c1C(=O)N1CCCCC1)CCCCC2)[C@@H]1CCCN1S(=O)(=O)c1ccccc1 [AAA(b)] | 8% | – | 366 nM | –
3 | O=C(Nc1sc2c(c1C(=O)N1CCCCC1)CCCCC2)[C@H]1CCCN1S(=O)(=O)c1ccc(F)cc1 [AAB(a)] | 68% | 1910 nM | 43.5 nM | 35.8 nM
4 | Cc1ccc(S(=O)(=O)N2CCC[C@@H]2C(=O)Nc2sc3c(c2C(=O)N2CCCCC2)CCCCC3)cc1 [AAC(a)] | 8% | – | 261 nM | 154 nM
5 | CS(=O)(=O)N1CCC[C@@H]1C(=O)Nc1sc2c(c1C(=O)N1CCCCC1)CCCCC2 [AAD(a)] | – | – | 2190 nM | –
6 | O=C(Nc1sc2c(c1C(=O)N1CCCCC1)CCCCC2)[C@H]1CCCN1S(=O)(=O)c1cccs1 [AAF(a)] | 150% | 425 nM | 7.3 nM | 4.5 nM
7 | CCOC(=O)c1c(NC(=O)[C@H]2CCCN2S(=O)(=O)c2ccccc2)sc2c1CCCCC2 [ABE(a)] | – | > 25000 nM | 15.1 nM | 11.5 nM
8 | O=C(Nc1sccc1C(=O)N1CCCCC1)[C@H]1CCCN1S(=O)(=O)c1ccccc1 [CAA(a)] | – | – | 1890 nM | –
9 | O=C(Nc1ccsc1C(=O)N1CCCCC1)[C@H]1CCCN1S(=O)(=O)c1ccccc1 [DAA(a)] | – | – | 1240 nM | –
10 | O=C(Nc1sc2c(c1C(=O)N1CCCCC1)CCCCC2)[C@H]1CCCN1C(=O)c1ccccc1 [EAA(a)] | – | – | 9290 nM | –
11 | O=C(Nc1ccccc1C(=O)N1CCCCC1)[C@H]1CCCN1S(=O)(=O)c1ccccc1 [GAA(a)] | – | – | 1130 nM | –
